The NIST ThermoML archive (doi:10.1021/je0497294)
Several values for one entry are separate records, joined by “and”; a condition that tells them apart may be missing. Equal values may be shown once. Numbers after ± are expanded uncertainties.

Columns and labels:
[1] = 298.15 K; for surface tension liquid-gas: Pendant drop shape; for mass density: 101.33 kPa, Liquid
[2] = xn = mol fraction of the nth substance listed; conditions: 298.15 K, Pendant drop shape

Cc1ccc(C)c(C)c1 [1,2,4-trimethylbenzene]
surface tension liquid-gas [1]: 29.25 ± 0.33 mN/m
mass density [1]: 871.64 ± 0.41 kg/m3

Cc1ccc(C)c(C)c1 [1,2,4-trimethylbenzene] + C1CCOC1
surface tension liquid-gas ([2]; x2 = 0): 29.25 ± 0.33 mN/m
surface tension liquid-gas ([2]; x2 = 0.0988): 29.11 ± 0.32 mN/m
surface tension liquid-gas ([2]; x2 = 0.2018): 29 ± 0.32 mN/m
surface tension liquid-gas ([2]; x2 = 0.3003): 28.88 ± 0.31 mN/m
surface tension liquid-gas ([2]; x2 = 0.3995): 28.73 ± 0.31 mN/m
surface tension liquid-gas ([2]; x2 = 0.5002): 28.53 ± 0.3 mN/m
surface tension liquid-gas ([2]; x2 = 0.6005): 28.29 ± 0.3 mN/m
surface tension liquid-gas ([2]; x2 = 0.6986): 28.01 ± 0.3 mN/m
surface tension liquid-gas ([2]; x2 = 0.7996): 27.68 ± 0.29 mN/m
surface tension liquid-gas ([2]; x2 = 0.9006): 27.34 ± 0.29 mN/m

Cc1ccc(C)c(C)c1 [1,2,4-trimethylbenzene] + C[S+](C)[O-]
surface tension liquid-gas ([2]; x2 = 0): 29.25 ± 0.33 mN/m
surface tension liquid-gas ([2]; x2 = 0.1007): 28.48 ± 0.32 mN/m
surface tension liquid-gas ([2]; x2 = 0.2007): 28.77 ± 0.32 mN/m
surface tension liquid-gas ([2]; x2 = 0.3007): 28.81 ± 0.32 mN/m
surface tension liquid-gas ([2]; x2 = 0.3995): 29.1 ± 0.32 mN/m
surface tension liquid-gas ([2]; x2 = 0.501): 29.46 ± 0.32 mN/m
surface tension liquid-gas ([2]; x2 = 0.6012): 29.34 ± 0.32 mN/m
surface tension liquid-gas ([2]; x2 = 0.6992): 29.35 ± 0.32 mN/m
surface tension liquid-gas ([2]; x2 = 0.7992): 30.04 ± 0.33 mN/m
surface tension liquid-gas ([2]; x2 = 0.9013): 35.71 ± 0.38 mN/m

Cc1ccc(C)c(C)c1 [1,2,4-trimethylbenzene] + ClC(Cl)(Cl)Cl
surface tension liquid-gas ([2]; x2 = 0): 29.25 ± 0.33 mN/m
surface tension liquid-gas ([2]; x2 = 0.0496): 29.13 ± 0.32 mN/m
surface tension liquid-gas ([2]; x2 = 0.0996): 29.04 ± 0.32 mN/m
surface tension liquid-gas ([2]; x2 = 0.1986): 28.89 ± 0.32 mN/m
surface tension liquid-gas ([2]; x2 = 0.3001): 28.72 ± 0.32 mN/m
surface tension liquid-gas ([2]; x2 = 0.4006): 28.5 ± 0.31 mN/m
surface tension liquid-gas ([2]; x2 = 0.5987): 28.24 ± 0.31 mN/m
surface tension liquid-gas ([2]; x2 = 0.6986): 27.89 ± 0.3 mN/m
surface tension liquid-gas ([2]; x2 = 0.7985): 27.54 ± 0.3 mN/m
surface tension liquid-gas ([2]; x2 = 0.9011): 27.13 ± 0.29 mN/m

Cc1cc(C)cc(C)c1 [1,3,5-trimethylbenzene]
surface tension liquid-gas [1]: 28.09 ± 0.31 mN/m and 26.76 ± 0.3 mN/m
mass density [1]: 861.03 ± 0.38 kg/m3

Cc1cc(C)cc(C)c1 [1,3,5-trimethylbenzene] + C1CCOC1
surface tension liquid-gas ([2]; x2 = 0): 28.09 ± 0.31 mN/m
surface tension liquid-gas ([2]; x2 = 0.0481): 27.88 ± 0.31 mN/m
surface tension liquid-gas ([2]; x2 = 0.2021): 27.72 ± 0.3 mN/m
surface tension liquid-gas ([2]; x2 = 0.3002): 27.57 ± 0.3 mN/m
surface tension liquid-gas ([2]; x2 = 0.4): 27.44 ± 0.3 mN/m
surface tension liquid-gas ([2]; x2 = 0.5004): 27.32 ± 0.29 mN/m
surface tension liquid-gas ([2]; x2 = 0.601): 27.23 ± 0.29 mN/m
surface tension liquid-gas ([2]; x2 = 0.7003): 27.15 ± 0.29 mN/m
surface tension liquid-gas ([2]; x2 = 0.7989): 27.09 ± 0.29 mN/m
surface tension liquid-gas ([2]; x2 = 0.9): 27.06 ± 0.29 mN/m

Cc1cc(C)cc(C)c1 [1,3,5-trimethylbenzene] + C[S+](C)[O-]
surface tension liquid-gas ([2]; x2 = 0): 28.09 ± 0.31 mN/m
surface tension liquid-gas ([2]; x2 = 0.1023): 27.3 ± 0.3 mN/m
surface tension liquid-gas ([2]; x2 = 0.1987): 26.92 ± 0.3 mN/m
surface tension liquid-gas ([2]; x2 = 0.3027): 26.7 ± 0.3 mN/m
surface tension liquid-gas ([2]; x2 = 0.401): 27.41 ± 0.3 mN/m
surface tension liquid-gas ([2]; x2 = 0.4999): 28.4 ± 0.31 mN/m
surface tension liquid-gas ([2]; x2 = 0.6003): 30.09 ± 0.33 mN/m
surface tension liquid-gas ([2]; x2 = 0.699): 32.05 ± 0.34 mN/m
surface tension liquid-gas ([2]; x2 = 0.8003): 34.77 ± 0.37 mN/m
surface tension liquid-gas ([2]; x2 = 0.8998): 37.92 ± 0.39 mN/m

Cc1cc(C)cc(C)c1 [1,3,5-trimethylbenzene] + ClC(Cl)(Cl)Cl
surface tension liquid-gas ([2]; x1 = 1): 26.76 ± 0.3 mN/m

C[S+](C)[O-] [dimethyl sulfoxide]
surface tension liquid-gas [1]: 42.09 ± 0.43 mN/m
mass density [1]: 1095.54 ± 0.42 kg/m3

C[S+](C)[O-] [dimethyl sulfoxide] + Cc1cc(C)cc(C)c1
surface tension liquid-gas ([2]; x1 = 1): 42.09 ± 0.43 mN/m

C[S+](C)[O-] [dimethyl sulfoxide] + Cc1ccc(C)c(C)c1
surface tension liquid-gas ([2]; x1 = 1): 42.09 ± 0.43 mN/m

ClC(Cl)(Cl)Cl [tetrachloromethane]
surface tension liquid-gas [1]: 27.76 ± 0.3 mN/m and 26.76 ± 0.29 mN/m and 28.09 ± 0.3 mN/m
mass density [1]: 1583.8 ± 0.76 kg/m3

ClC(Cl)(Cl)Cl [tetrachloromethane] + Cc1cc(C)cc(C)c1
surface tension liquid-gas ([2]; x2 = 0): 28.09 ± 0.3 mN/m
surface tension liquid-gas ([2]; x2 = 0.1009): 27.77 ± 0.3 mN/m
surface tension liquid-gas ([2]; x2 = 0.2014): 27.53 ± 0.3 mN/m
surface tension liquid-gas ([2]; x2 = 0.2994): 27.29 ± 0.3 mN/m
surface tension liquid-gas ([2]; x2 = 0.4007): 27.1 ± 0.3 mN/m
surface tension liquid-gas ([2]; x2 = 0.4998): 26.99 ± 0.3 mN/m
surface tension liquid-gas ([2]; x2 = 0.5995): 26.91 ± 0.3 mN/m
surface tension liquid-gas ([2]; x2 = 0.6988): 26.86 ± 0.3 mN/m
surface tension liquid-gas ([2]; x2 = 0.797): 26.83 ± 0.3 mN/m
surface tension liquid-gas ([2]; x2 = 0.9012): 26.81 ± 0.3 mN/m

ClC(Cl)(Cl)Cl [tetrachloromethane] + Cc1ccc(C)c(C)c1
surface tension liquid-gas ([2]; x1 = 1): 26.76 ± 0.29 mN/m

C1CCOC1 [tetrahydrofuran]
surface tension liquid-gas [1]: 27.04 ± 0.29 mN/m
mass density [1]: 882.06 ± 0.21 kg/m3

C1CCOC1 [tetrahydrofuran] + Cc1cc(C)cc(C)c1
surface tension liquid-gas ([2]; x1 = 1): 27.04 ± 0.29 mN/m

C1CCOC1 [tetrahydrofuran] + Cc1ccc(C)c(C)c1
surface tension liquid-gas ([2]; x1 = 1): 27.04 ± 0.29 mN/m
